Source: ChEMBL document CHEMBL1153006, “Synthesis, NMR characterization and in vitro antitumor evaluation of new aminophosphonic acid diesters” (Eur J Med Chem, 2009)

Key:
Type in all cases: functional, cell-based
HL-60 [1] = assay: Cytotoxicity against human HL60 cells after 72 hrs by MTT assay; conditions: HL-60, 72 h
K562 = assay: Cytotoxicity against human K562 cells after 72 hrs by MTT assay; conditions: K562, 72 h
LAMA-84 = assay: Cytotoxicity against human LAMA-84 cells after 72 hrs by MTT assay; conditions: LAMA-84, 72 h
HL-60 [2] = assay: Cytotoxicity against multidrug-resistant human HL60 cells overexpressing in MRP-1 after 72 hrs by MTT assay; conditions: HL-60, 72 h

For `Cc1ccc(/N=C\c2ccc(N(C)C)cc2)cc1`, which IC50 (HL-60 [1]) is on record?
The IC50 was > 400 µM.

What about the IC50 (K562) of the same compound?
The IC50 was 213 µM.

What about the IC50 (LAMA-84) of the same compound?
Its IC50 is 252 µM.

And the IC50 (HL-60 [2])?
The IC50 was 226 µM.

How did the IC50 (HL-60 [1]) turn out when `CCOP(=O)(OCC)C(NCCCN(C)C)c1ccco1` (stereo unspecified) was run?
The IC50 was 163 µM.

And the IC50 (K562)?
Its IC50 is 353 µM.

And the IC50 (LAMA-84)?
Its IC50 is > 400 µM.

What about the IC50 (HL-60 [2]) of the same compound?
Its IC50 is 190 µM.

Which IC50 (HL-60 [1]) does the source give for `CCOP(=O)(OCC)C(Nc1ccc(C)cc1)c1ccc(N(C)C)cc1` (stereo unspecified) here?
Its IC50 is > 400 µM.

What about the IC50 (K562) of the same compound?
Its IC50 is 42.4 µM.

What about the IC50 (LAMA-84) of the same compound?
Its IC50 is 119 µM.

And the IC50 (HL-60 [2])?
The IC50 was 107 µM.

Which results are given for `Cc1ccc(/N=C\c2ccco2)cc1` [N-FURFURYLIDENE-P-TOLUIDINE]?
IC50 (HL-60 [1]): > 400 µM; IC50 (K562): 29.9 µM; IC50 (LAMA-84): 39.9 µM; IC50 (HL-60 [2]): 68.6 µM
